Laboratory results: publication PMC3265452 (PLoS Neglected Tropical Diseases, 2012)
Structures can show the parent of a compound that is named as a salt. Where two headings read alike, the source gives them in different places.

Biological target: AaDOP2 (Aedes aegypti, UniProt H6D5H2)
Assay: AaDOP2 antagonist screen of the LOPAC1280 library (HEK-CRELuc-Aadop2 cells, luminescence)
Format: cell-based
[1] = 10 µM compound, 300 nM dopamine, 2 hr, hit = compound effect <20

AaDOP2, sequence (H6D5H2 1-476): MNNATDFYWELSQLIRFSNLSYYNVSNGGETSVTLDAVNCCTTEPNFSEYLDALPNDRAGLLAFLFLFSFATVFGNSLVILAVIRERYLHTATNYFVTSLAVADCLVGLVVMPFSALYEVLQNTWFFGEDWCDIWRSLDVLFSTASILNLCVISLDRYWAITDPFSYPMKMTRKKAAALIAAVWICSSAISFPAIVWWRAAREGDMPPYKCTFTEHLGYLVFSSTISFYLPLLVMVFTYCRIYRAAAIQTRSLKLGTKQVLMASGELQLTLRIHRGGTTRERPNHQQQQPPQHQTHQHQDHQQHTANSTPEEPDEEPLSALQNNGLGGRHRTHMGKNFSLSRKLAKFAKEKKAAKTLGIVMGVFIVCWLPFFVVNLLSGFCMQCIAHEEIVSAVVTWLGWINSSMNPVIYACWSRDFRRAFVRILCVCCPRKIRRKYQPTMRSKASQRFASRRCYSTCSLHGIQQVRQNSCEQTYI

SMILES: NC[C@@H]1O[C@H](O[C@H]2[C@@H](O)[C@H](O[C@@H]3[C@@H](O)[C@H](N)C[C@H](N)[C@H]3O[C@H]3O[C@H](CO)[C@@H](O)[C@H](O)[C@H]3N)O[C@@H]2CO)[C@H](N)[C@@H](O)[C@@H]1O [Compound 994, Paromomycin sulfate]
- Compound effect (percent receptor signaling in presence of test compound, relative lux units relative to the SCH23390 control): 96

SMILES: O.c1cnc2c(c1)ccc1cccnc12 [Compound 995, 1,10-Phenanthroline monohydrate]
- Compound effect (percent receptor signaling in presence of test compound, relative lux units relative to the SCH23390 control): 95

SMILES: CCN(CC)CCNC(=O)c1ccc(N)cc1 [Compound 996, Procainamide hydrochloride]
- Compound effect (percent receptor signaling in presence of test compound, relative lux units relative to the SCH23390 control): 100

SMILES: CCCNC(C)C(=O)Nc1ccccc1C (stereo not drawn) [Compound 997, Prilocaine hydrochloride]
- Compound effect (percent receptor signaling in presence of test compound, relative lux units relative to the SCH23390 control): 95

SMILES: CCCn1cnc2c1c(=O)n(CCCCC(C)=O)c(=O)n2C [Compound 998, Propentofylline]
- Compound effect (percent receptor signaling in presence of test compound, relative lux units relative to the SCH23390 control): 87

SMILES: CCCNC[C@H](O)COc1ccccc1C(=O)CCc1ccccc1.Cl [Compound 999, (S)-(-)-propafenone hydrochloride]
- Compound effect (percent receptor signaling in presence of test compound, relative lux units relative to the SCH23390 control): 77

SMILES: CN(C)C(=O)Oc1ccc[n+](C)c1 [Compound 1000, Pyridostigmine bromide]
- Compound effect (percent receptor signaling in presence of test compound, relative lux units relative to the SCH23390 control): 106

SMILES: CCN(CC)CCOC(=O)c1ccc(N)cc1 [Compound 1001, Procaine hydrochloride]
- Compound effect (percent receptor signaling in presence of test compound, relative lux units relative to the SCH23390 control): 96

SMILES: Nc1nc(Nc2ccccc2)nc2c1ncn2[C@@H]1O[C@H](CO)[C@@H](O)[C@H]1O [Compound 1002, 2-Phenylaminoadenosine]
- Compound effect (percent receptor signaling in presence of test compound, relative lux units relative to the SCH23390 control): 106

SMILES: CCCN1CCC[C@H](c2cccc(O)c2)C1.Cl [Compound 1003, R(+)-3PPP hydrochloride]
- Compound effect (percent receptor signaling in presence of test compound, relative lux units relative to the SCH23390 control) [1]: 86%

SMILES: CCCN1CCC[C@@H](c2cccc(O)c2)C1.Cl [Compound 1004, S(-)-3PPP hydrochloride]
- Compound effect (percent receptor signaling in presence of test compound, relative lux units relative to the SCH23390 control) [1]: 89%

SMILES: Cl.NCC#Cc1ccccc1 [Compound 1006, 3-Phenylpropargylamine hydrochloride]
- Compound effect (percent receptor signaling in presence of test compound, relative lux units relative to the SCH23390 control) [1]: 91%

SMILES: OC[C@H]1O[C@@H](n2cnc3c(NCCc4ccccc4)ncnc32)[C@H](O)[C@@H]1O [Compound 1007, N6-2-Phenylethyladenosine]
- Compound effect (percent receptor signaling in presence of test compound, relative lux units relative to the SCH23390 control): 104

SMILES: OC[C@H]1O[C@@H](n2cnc3c(Nc4ccccc4)ncnc32)[C@H](O)[C@@H]1O [Compound 1008, N6-Phenyladenosine]
- Compound effect (percent receptor signaling in presence of test compound, relative lux units relative to the SCH23390 control): 99

SMILES: NCC(CP(=O)(O)O)c1ccc(Cl)cc1 (stereo not drawn) [Compound 1009, Phaclofen]
- Compound effect (percent receptor signaling in presence of test compound, relative lux units relative to the SCH23390 control): 71

SMILES: N=C(N)NC(=N)Nc1ccccc1 [Compound 1011, 1-Phenylbiguanide]
- Compound effect (percent receptor signaling in presence of test compound, relative lux units relative to the SCH23390 control): 81

SMILES: CN/C(=N\c1ccc(C2=NNC(=O)CC2C)cc1)NC#N (stereo not drawn) [Compound 1012, SKF 94836]
- Compound effect (percent receptor signaling in presence of test compound, relative lux units relative to the SCH23390 control): 72

SMILES: Cc1nc2ccccn2c(=O)c1CCN1CCC(C(=O)c2ccc(F)cc2)CC1 [Compound 1013, Pirenperone]
- Compound effect (percent receptor signaling in presence of test compound, relative lux units relative to the SCH23390 control): 10
- inhibition at 10 µM (read-out: % of the SCH23390 effect (percent inhibition of receptor response relative to the SCH23390 control)): 90%

SMILES: COc1cc(OC)c(C=C2C(O)=Nc3ccccc32)c(OC)c1 [Compound 1014, IC 261]
- Compound effect (percent receptor signaling in presence of test compound, relative lux units relative to the SCH23390 control): 78

SMILES: CC(C)NC[C@H](O)COc1cccc2[nH]ccc12 [Compound 1015, S(-)-Pindolol]
- Compound effect (percent receptor signaling in presence of test compound, relative lux units relative to the SCH23390 control): 87

SMILES: CC(N/C(=N\C#N)Nc1ccncc1)C(C)(C)C (stereo not drawn) [Compound 1016, Pinacidil]
- Compound effect (percent receptor signaling in presence of test compound, relative lux units relative to the SCH23390 control): 89

SMILES: CC(=O)[C@H]1CC[C@H]2[C@@H]3CC=C4C[C@@H](OS(=O)(=O)[O-])CC[C@]4(C)[C@H]3CC[C@]12C.[Na+] [Compound 1017, Pregnenolone sulfate sodium]
- Compound effect (percent receptor signaling in presence of test compound, relative lux units relative to the SCH23390 control): 107

SMILES: Cc1nc(N=Nc2ccc(S(=O)(=O)O)cc2S(=O)(=O)O)c(COP(=O)(O)O)c(C=O)c1O [Compound 1018, PPADS]
- Compound effect (percent receptor signaling in presence of test compound, relative lux units relative to the SCH23390 control) [1]: 103%

SMILES: CCCN1CCO[C@@H]2c3cc(O)ccc3OC[C@H]21.Cl [Compound 1019, S(+)-PD 128,907 hydrochloride]
- Compound effect (percent receptor signaling in presence of test compound, relative lux units relative to the SCH23390 control) [1]: 89%

SMILES: NC(=Nc1ccccc1)NC(=O)c1nc(Cl)c(N)nc1N [Compound 1020, Phenamil methanesulfonate]
- Compound effect (percent receptor signaling in presence of test compound, relative lux units relative to the SCH23390 control): 46

SMILES: O=C([O-])CCC(NC(=O)c1ccccc1C(=O)[O-])C(=O)[O-].[Na+].[Na+].[Na+] [Compound 1022, Phthalamoyl-L-glutamic acid trisodium]
- Compound effect (percent receptor signaling in presence of test compound, relative lux units relative to the SCH23390 control) [1]: 97%

SMILES: COc1cccc(-c2cc(=O)c3ccccc3o2)c1N [Compound 1023, PD 98,059]
- Compound effect (percent receptor signaling in presence of test compound, relative lux units relative to the SCH23390 control): 94

SMILES: Cc1cccc(C(=O)NCN2CCN(c3ccccc3C#N)CC2)c1.O=C(O)/C=C\C(=O)O [Compound 1025, PD 168,077 maleate]
- Compound effect (percent receptor signaling in presence of test compound, relative lux units relative to the SCH23390 control): 91

SMILES: CN(C)S(=O)(=O)c1ccc2c(c1)/C(=C/c1cc3c([nH]1)CCCC3)C(=O)N2 [Compound 1026, SU 6656]
- Compound effect (percent receptor signaling in presence of test compound, relative lux units relative to the SCH23390 control): 65

SMILES: O=C(O)c1cccnc1C(=O)O [Compound 1027, Quinolinic acid]
- Compound effect (percent receptor signaling in presence of test compound, relative lux units relative to the SCH23390 control): 83

SMILES: O=c1c(O)c(-c2ccc(O)c(O)c2)oc2cc(O)cc(O)c12 [Compound 1028, Quercetin dihydrate]
- Compound effect (percent receptor signaling in presence of test compound, relative lux units relative to the SCH23390 control): 34

SMILES: C=C[C@H]1C[N@@]2CC[C@H]1C[C@@H]2[C@@H](O)c1ccnc2ccc(OC)cc12 [Compound 1029, Quinidine sulfate]
- Compound effect (percent receptor signaling in presence of test compound, relative lux units relative to the SCH23390 control): 69

SMILES: O=C(O)/C=C\C(=O)O.O=C(O)/C=C\C(=O)O.c1ccc2nc(N3CCNCC3)ccc2c1 [Compound 1030, Quipazine dimaleate]
- Compound effect (percent receptor signaling in presence of test compound, relative lux units relative to the SCH23390 control): 71

SMILES: C=C[C@H]1C[N@@]2CC[C@H]1C[C@H]2[C@H](O)c1ccnc2ccc(OC)cc12 [Compound 1031, Quinine sulfate]
- Compound effect (percent receptor signaling in presence of test compound, relative lux units relative to the SCH23390 control): 79

SMILES: N[C@@H](Cn1oc(=O)[nH]c1=O)C(=O)O [Compound 1032, (+)-Quisqualic acid]
- Compound effect (percent receptor signaling in presence of test compound, relative lux units relative to the SCH23390 control): 80

SMILES: CCN(CC)CCCC(C)Nc1c2ccc(Cl)cc2nc2ccc(OC)cc12 (stereo not drawn) [Compound 1033, Quinacrine dihydrochloride]
- Compound effect (percent receptor signaling in presence of test compound, relative lux units relative to the SCH23390 control): 94

SMILES: C[C@@H]1C(=O)NC2=Nc3cccc(Cl)c3CN21 [Compound 1034, Quazinone]
- Compound effect (percent receptor signaling in presence of test compound, relative lux units relative to the SCH23390 control): 108

SMILES: CN1CCN(c2ccc3ccccc3n2)CC1.O=C(O)/C=C\C(=O)O.O=C(O)/C=C\C(=O)O [Compound 1036, Quipazine, N-methyl-, dimaleate]
- Compound effect (percent receptor signaling in presence of test compound, relative lux units relative to the SCH23390 control) [1]: 74%

SMILES: O=C(O)/C=C\C(=O)O.O=[N+]([O-])c1ccc2nc(N3CCNCC3)ccc2c1 [Compound 1037, Quipazine, 6-nitro-, maleate]
- Compound effect (percent receptor signaling in presence of test compound, relative lux units relative to the SCH23390 control) [1]: 92%

SMILES: CCCN1CCC[C@@H]2Cc3nc(N)ncc3C[C@H]21 [Compound 1038, Quinelorane dihydrochloride]
- Compound effect (percent receptor signaling in presence of test compound, relative lux units relative to the SCH23390 control) [1]: 99%

SMILES: C[C@]12CCC(=O)C=C1CC[C@@H]1[C@@H]2CC[C@@]2(C)[C@H]1CC[C@]2(O)C(=O)CO [Compound 1040, Cortexolone]
- Compound effect (percent receptor signaling in presence of test compound, relative lux units relative to the SCH23390 control): 99

SMILES: CC(NCCc1ccc(O)cc1)C(O)c1ccc(O)cc1 (stereo not drawn) [Compound 1041, Ritodrine hydrochloride]
- Compound effect (percent receptor signaling in presence of test compound, relative lux units relative to the SCH23390 control): 119

SMILES: O=C(c1ccc(OCCN2CCCCC2)cc1)c1c(-c2ccc(O)cc2)sc2cc(O)ccc12 [Compound 1042, Raloxifene hydrochloride]
- Compound effect (percent receptor signaling in presence of test compound, relative lux units relative to the SCH23390 control): 103

SMILES: CC1=C(/C=C/C(C)=C/C=C/C(C)=C/C(=O)O)C(C)(C)CCC1 [Compound 1043, Retinoic acid]
- Compound effect (percent receptor signaling in presence of test compound, relative lux units relative to the SCH23390 control): 106

SMILES: N.N.N.N.N.N.N.N.N.N.N.N.N.N.[Cl-].[Cl-].[Cl-].[Cl-].[Cl-].[Cl-].[O-2].[O-2].[Ru+3].[Ru+3].[Ru+4] [Compound 1044, Ruthenium red]
- Compound effect (percent receptor signaling in presence of test compound, relative lux units relative to the SCH23390 control): 61

SMILES: CC1=C(/C=C/C(C)=C/C=C/C(C)=C\C(=O)O)C(C)(C)CCC1 [Compound 1045, 13-cis-retinoic acid]
- Compound effect (percent receptor signaling in presence of test compound, relative lux units relative to the SCH23390 control): 72

SMILES: O=c1c2ccccc2nc2n1CCc1c-2[nH]c2ccccc12 [Compound 1046, Rutaecarpine]
- Compound effect (percent receptor signaling in presence of test compound, relative lux units relative to the SCH23390 control): 78

SMILES: CCCN(CCC)CCc1cccc2c1CC(=O)N2 [Compound 1047, Ropinirole hydrochloride]
- Compound effect (percent receptor signaling in presence of test compound, relative lux units relative to the SCH23390 control): 103

SMILES: CCCCCC(O)c1cccc(OCc2ccc3ccccc3n2)c1 (stereo not drawn) [Compound 1049, REV 5901]
- Compound effect (percent receptor signaling in presence of test compound, relative lux units relative to the SCH23390 control): 103

SMILES: CC(=O)c1c(O)c(C)c(O)c(Cc2c(O)c3c(c(C(=O)/C=C/c4ccccc4)c2O)OC(C)(C)C=C3)c1O [Compound 1050, Rottlerin]
- Compound effect (percent receptor signaling in presence of test compound, relative lux units relative to the SCH23390 control): 35
